Laboratory results from paper PMC10322781 (Archives of Toxicology, 2023).
Several values for one entry are separate records, joined by “and”; a condition that tells them apart may be missing. Identical values can stand only once.

Key:
LS180 cells = format: in vitro ADME; conditions: human
Method: The UPLC-MS/MS system consisted of a triple stage quadrupole mass spectrometer (Waters Xevo TQ-S, Milford, MA, USA) and an Acquity Classic UPLC® (Waters). Mass spectrometric analysis was performed by selective reaction monitoring using positive electrospray ionization. […] Because of their considerable molecular size, rifamycins were chromatographically separated on a Waters Peptide BEH C18 Column (300 Å, 1.7 μm, 2.1 mm × 50 mm) to foster optimal mass transfer kinetics. The mobile phase was composed of H20/ACN (95/5, v/v) + 0.1% FA (eluent A) and ACN + 0.1% FA (eluent B). […] The total run time was 4 min, and the column was heated to 60 °C. The injection volume was set to 20 μL with a flow rate of 0.5 mL/min. A pellet of untreated LS180 cells (500,000 cells/sample) was used for calibration standards and QC standard. […] Subsequently, proteins were precipitated with 110 μL ACN (uptake samples) or 100 μL ACN (calibration standards and QC standards). […] To determine intracellular rifamycin concentrations, measured compound concentrations were normalized to the total pellet volume. This was achieved by multiplying the measured mean cellular volume of a LS180 cell (CASY cell counter, Schärfe System, Reutlingen, Germany) by the mean cell number of four wells of an identically prepared and treated cell culture plate.

CYP3A4 [1] = test system: CYP3A4
Method: (§1) A random hexamer primer was used according to the manufacturer’s instructions. […] Experiments were performed in four independent biological replicates with technical duplicates (PCR runs) for each concentration.

ABCB1 = ABCB1 mRNA expression in LS180 cells (real-time RT-PCR); format: cell-based, human; conditions: for EC50 at 24 h / EC50 at 96 h / EC50 at 144 h: human, LS180 cells
Method: as §1

CYP3A4 [2] = test system: CYP3A4; remark: listed apart in the source
Method: To determine CYP3A4 activity in LS180 cells after rifamycin treatment, 20,000 cells per well were seeded into 96-well plates and allowed to grow for 3 days until 70% confluency. […] Cells were washed twice with PBS and then pre-incubated with PBS + 2% FCS for 30 min at 37 °C. PBS was removed and replaced by 50 µL of 3 µM luciferin-IPA (selective CYP3A4 substrate) and incubated for 60 min at 37 °C. After incubation, 25 µL supernatant from each well was transferred to a white 96-well plate and 25 µL detection reagent (containing luciferase) was added. Cells were subsequently incubated for 20 min at room temperature. […] CYP3A4 activity was normalized to untreated controls.

Pgp = test: Induction of Pgp activity in LS180 cells (rhodamine123 efflux, flow cytometry); format: cell-based, human; conditions: LS180, 144 h exposure; for Emax Pgp activity (activation): fold compared to untreated cells; for EC50 at 144 h: human, LS180 cells, probe rhodamine123 (0.4 µM), with zosuquidar (10 µM), rhodamine123 efflux, read-out: EC50 Pgp activity (activation)
Method: To assess the induction of Pgp activity, 200,000 LS180 cells per well were seeded in a 6-well plate, cultured for 3 days and subsequently exposed to rifamycins for 144 h. After treatment, cells were harvested and subjected to the rhodamine efflux assay as described previously (Theile et al. [2013]; Weiss et al. [2008]). Briefly, cells were incubated with the fluorescent Pgp substrate rhodamine123 (0.4 µM) on a rotary shaker for 30 min at 37 °C under protection from light. Subsequently, cells were incubated with the selective Pgp inhibitor zosuquidar (10 µM) for 50 min at 37 °C on a rotary shaker. Medium without zosuquidar was used as a negative control. All washing steps were performed with ice-cold PBS at 4 °C. Intracellular rhodamine123 fluorescence was determined using a flow cytometer (MACSQuant analyzer 10, Miltenyi Biotec, Bergisch Gladbach, Germany). Thirty thousand cells were used for the analysis. For data evaluation, the ratio of zosuquidar-inhibited samples to non-inhibited samples of the rifamycin experiment was calculated and normalized to the ratio of untreated cell controls (no rifamycin treatment).

mdr1a/b = test: Pgp inhibition calcein assay in P388/dx cells; format: cell-based, murine; conditions: for Emax Pgp inhibition: calcein assay, fold compared to untreated cells; for IC50: calcein efflux
Method: To investigate the potential Pgp inhibition by the rifamycins, the murine monocytic leukaemia cell line P388/dx (overexpressing the murine Pgp counterpart mdr1a/b (Boesch et al. [1991])) and the corresponding parental cell line P388 were used (kindly provided by Dr. D. Ballinari; Pharmacia & Upjohn, Milan, Italy). Cells were cultured under standard conditions with RPMI 1640 cell culture medium supplemented with FCS 10%, 2 mM glutamine, […] β-mercaptoethanol, 100 U/mL penicillin, and 100 µg/mL streptomycin sulphate. The culture medium of the P388/dx cell line was additionally supplemented with doxorubicin (final concentration: 0.45 µM) to maintain mdr1a/b expression. One day before the experiments, P388/dx cells were set to doxorubicin-free medium.
Pgp activity was determined using a calcein assay as described previously (Fröhlich et al. [2004]) with zosuquidar (10 µM) as a positive control.

P388 cells = test: Calcein assay in parental P388 cells; format: cell-based, murine
CYP3A4 [3] = biological target: CYP3A4 (Homo sapiens, UniProt P08684); conditions: microsomes
Method: For this purpose, rifamycins were tested between 0.5 to 50 µM. […] A reaction mixture without CYP3A4 was incubated as negative control. Luminescence signals were normalized to the untreated cell control.

[4] = set-up: method as in Zhang et al. [2008]; conditions: 300 mg rifabutin; ref Zhang et al. [2008]; cited from earlier work
[5] = cited from earlier work
[6] = LS180, 24 h, fold induction compared to untreated cells
[7] = LS180, 96 h, fold induction compared to untreated cells
[8] = LS180, 144 h, fold induction compared to untreated cells
[9] = LS180, 24 h, extracellular concentration
[10] = LS180, 24 h (24*), intracellular concentrations

Sequence of CYP3A4 (Homo sapiens, UniProt P08684) (P08684 whole entry): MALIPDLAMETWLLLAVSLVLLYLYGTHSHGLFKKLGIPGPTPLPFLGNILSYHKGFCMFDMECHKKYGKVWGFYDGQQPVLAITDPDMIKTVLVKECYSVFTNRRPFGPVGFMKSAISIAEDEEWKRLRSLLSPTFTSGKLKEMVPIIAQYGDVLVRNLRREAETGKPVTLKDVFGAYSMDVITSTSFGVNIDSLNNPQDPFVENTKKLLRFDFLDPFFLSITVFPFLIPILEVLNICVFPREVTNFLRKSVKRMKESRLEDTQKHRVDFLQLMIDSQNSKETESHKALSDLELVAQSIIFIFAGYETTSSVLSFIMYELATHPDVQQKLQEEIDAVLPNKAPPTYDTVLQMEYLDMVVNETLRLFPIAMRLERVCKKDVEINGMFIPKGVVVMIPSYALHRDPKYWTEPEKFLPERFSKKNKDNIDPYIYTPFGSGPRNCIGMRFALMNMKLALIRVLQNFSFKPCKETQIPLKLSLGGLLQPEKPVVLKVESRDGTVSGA

| Compound | Emax ABCB1 mRNA expression (ABCB1; [6]) [fold] | Emax ABCB1 mRNA expression (ABCB1; [7]) [fold] | Emax ABCB1 mRNA expression (ABCB1; [8]) [fold] | EC50 at 24 h (ABCB1; [9]) [nM] | EC50 at 96 h (ABCB1; LS180, 96 h) [nM] | EC50 at 144 h (ABCB1; LS180, 144 h) [nM] | Emax Pgp activity (activation) (Pgp) [fold] | EC50 at 144 h (Pgp) [nM] | Emax Pgp inhibition (mdr1a/b) [fold] | IC50 (mdr1a/b) [nM] | intracellular calcein fluorescence (P388 cells) | also measured |
| --- | --- | --- | --- | --- | --- | --- | --- | --- | --- | --- | --- | --- |
| CO[C@H]1/C=C/O[C@@]2(C)Oc3c(C)c(O)c4c(c3C2=O)C2=NC3(CCN(CC(C)C)CC3)NC2=C(NC(=O)/C(C)=C\C=C\[C@H](C)[C@H](O)[C@@H](C)[C@@H](O)[C@@H](C)[C@H](OC(C)=O)[C@@H]1C)C4=O [Rifabutin] | 1.4 ± 0.024 | 2.8 ± 0.16 | 4.5 ± 0.71 | 1100 ± 27 | 1800 ± 1100 | 1500 ± 720 | 2.8 ± 0.48 | 1100 ± 160 | 4.9 ± 1.3 | 320 ± 100 | remained unchanged | time to reach intracellular concentration equilibrium (LS180 cells): 6 h; molar metabolite-to-parent ratio (25-O-deacetyl metabolite) (LS180 cells; 10 µM): 0.002 to 0.006; increase of CYP3A4 mRNA levels (CYP3A4 [1]): twofold; concentration dependence of CYP3A4 activity (CYP3A4 [2]): no concentration dependence; increase in CYP3A4 activity after exposure (CYP3A4 [2]): no detectable increase; IC50 (mdr1a/b; listed as rifabutin): 300 nM; lowering of CYP3A4 activity (CYP3A4 [3]; human): approx. 80%; expected drug concentration in the gut lumen [4]: approx. 1.4 mM; effect on dabigatran etexilate kinetics ([5]; 300 mg rifabutin, ref Lutz et al., CPT [2018b]): not affected; reduction of bioavailability of doravirine ([5]; repeated administration of 300 mg rifabutin, ref Khalilieh et al. [2018]): 50%; reduction of bioavailability of indinavir ([5]; repeated administration of 300 mg rifabutin, ref Kraft et al. [2004]): 34% |
| CO[C@H]1/C=C/O[C@@]2(C)Oc3c(C)c(O)c4c(O)c(c(/C=N/N5CCN(C)CC5)c(O)c4c3C2=O)NC(=O)/C(C)=C\C=C\[C@H](C)[C@H](O)[C@@H](C)[C@@H](O)[C@@H](C)[C@H](OC(C)=O)[C@@H]1C [Rifampicin] | 2.6 ± 0.068 | 5.1 ± 0.12 | 7.0 ± 0.53 | 8600 ± 470 | 1100 ± 56 | 1000 ± 65 | 3.2 ± 0.37 | 1000 ± 1.4 | 4.3 ± 0.53 | 13000 ± 4100 | remained unchanged | EC50 (ABCB1; [10]): 37000 ± 2000 nM; Emax ABCB1 mRNA expression (ABCB1; LS180, 24 h (24*), intracellular concentrations, compared to untreated): 2.6 fold and 2.6 ± 0.068 fold; EC50 at 24 h (ABCB1; [10]): 37400 nM; IC50 (mdr1a/b; listed as rifampicin): 12900 nM; lowering of exposure to indinavir ([5]; repetitive administration of 600 mg standard dose of rifampicin, ref Avihingsanon et al. [2012]): approx. 90%; lowering of exposure to doravirine ([5]; repetitive administration of 600 mg standard dose of rifampicin, ref Yee et al. [2017]): approx. 90% |
| CN(C)C(=N)N=C(N)N [metformin] |  |  |  |  |  |  |  |  |  |  |  | effect on CYP3A4 activity (CYP3A4 [3]): no effect |
